Consider 26 molecules from patent publication US7098219B2, “Inhibitors of cellular efflux pumps of microbes” (Wockhart Limited, priority 2000, dated 2006).

In this assay the test system is Staphylococcus aureus 1199 B NorA+. The assay is classed as cell-based. The note with it: combination with ciprofloxacin, broth microdilution checkerboard, 35° C. 20 hours; FIC index ≦0.5 synergistic, 0.5–2.0 additive, >2.0 antagonistic. An excerpt:
Testing method for inhibition of the efflux pump of Staphylococcus aureus 1199B NorA^+
[…]. Victor Lorian, Md., Fourth edition 1996, pp 333–338).
In short, the assay involves broth microdilution method performed as recommended by the National Committee for Clinical Laboratory Standards (NCCLS) 1997 (Methods for Dilution of Antimicrobial Susceptibility Tests for Bacteria that Grow Aerobically, Fourth edition; Approved Standard, NCCLS document M7-A4, vol. 17, No. 2). The test organism used for the assay is Staphylococcus aureus 1199 B NorA^+.
[…]. Stock solutions of the efflux pump inhibitors tested are prepared in dimethyl sulfoxide (DMSO) at a final concentration of 5 mg/ml. Stock solutions are further diluted in Mueller Hinton Broth as per the need of the assay. Ciprofloxacin is dissolved in water.
The checkerboard assay is performed in microtiter plates. […] The efflux pump inhibitor is diluted in the Y-axis, each row containing an equal concentration of efflux pump inhibitor. The result of these manipulations is that each well of the microtiter plate contains a unique combination of concentrations of the two agents. Bacterial inoculum is added at 5×10^5 CFU/ml. Microtiter plates are incubated at 35° C. for 20 hours. Reading is done by visibly noting turbidity and confirmed using a microtiter plate reader (Molecular Devices). The FIC index is calculated as
(A) is the concentration of the experimental efflux pump inhibitor in the well that is the lowest inhibitory concentration in the Y-axis. (MICA) is the MIC of Staphylococcus aureus to experimental efflux pump inhibitor alone. FICA is the fractional inhibitory concentration of an experimental efflux pump inhibitor. […] (Antimicrobial Combination In Antibiotics in Laboratory Medicine, Ed. Victor Lorian, Md., Fourth edition 1996, pp 333–338).
Take `CCCCN(CCCC)C1CCN(c2c(F)c(N)c3c(=O)c(C(=O)O)cn(C4CC4)c3c2F)CC1` [Example 28 (NorA), 5-Amino-1-cyclopropyl-6,8-difluoro-1,4-dihydro-7-{4′-(N-di-n-butylamino)piperidin-1-yl)-4-oxo-quinoline-3-carboxylic acid]: the “FIC INDEX” value is reported as 0.314. As for `O=C(O)c1cn(C2CC2)c2nc(NC3CCN(c4nc5c(cc4F)c(=O)c(C(=O)O)cn5C4CC4)C3)c(F)cc2c1=O` (centres unmarked) [Bis compound 2], the “FIC INDEX” value was 0.282. Take `CCn1cc(C(=O)O)c(=O)c2cc(F)c(N3CCN(CCN4CCOC4=O)CC3)c(F)c21` [Example 3 (NorA), 1-Ethyl-6,8-fluoro-1,4-dihydro-7-(4′-{2′-(2′-oxazolidin-1yl)ethyl}piperazin-1-yl)-4-oxo-quinoline-3-carboxylic acid]: the “FIC INDEX” value came to 0.188. As to `C[C@H](NC(=O)OC(C)(C)C)C(=O)N[C@@H](C)C(=O)NC1CCN(c2c(F)c(N)c3c(=O)c(C(=O)O)cn(C4CC4)c3c2F)CC1` [Example 29 (NorA), 5-Amino-1-cyclopropyl-6,8-difluoro-1,4-dihydro-7-{4′-(-t-butoxycarbonylamino-L-Ala-L-Ala)aminopiperidin-1-yl}-4-oxo-quinoline-3-carboxylic acid], the “FIC INDEX” value worked out at 0.320. `CC1CN(c2cc3c(cc2F)c(=O)c(C(=O)O)cn3C2CC2)CC(C)N1C` (centres unmarked) [Example 15 (NorA), 1-Cyclopropyl-6-fluoro-1,4-dihydro-7-(3′,4′,5′-trimethylpiperazin-1-yl)-4-oxo-quinoline-3-carboxylic acid]: the “FIC INDEX” value stood at 0.314. For the molecule `CC1CN(c2cc3c(cc2F)c(=O)c(C(=O)O)cn3C2CC2)CC(C)C1O` (centres unmarked) [Example 14 (NorA), 1-Cyclopropyl-6-fluoro-1,4-dihydro-7-(4′-hydroxy-3′,5′-dimethylpiperidin-1-yl)-4-oxo-quinoline-3-carboxylic acid], the “FIC INDEX” value was 0.314. For `Cc1c(F)c(N2CCC(Nc3c(F)c(N)c4c(=O)c(C(=O)O)cn(C5CC5)c4c3F)C2)cc2c1c(=O)c(C(=O)O)cn2C1CC1` (centres unmarked) [Bis compound 7, N-1-{7-(1-cyclopropyl-6-fluoro-5-methyl-1,4-dihydro-4-oxo-quinolone-3-carboxylic acid)}-N-3-amino{7-(1-cyclopropyl-6,8-difluoro-5-amino-1,4-dihydro-4-oxo-quinoline-3-carboxylic acid)}-pyrrolidine], the “FIC INDEX” value is 0.304.

Consider `CC1CC(C)CN(c2cc3c(cc2F)c(=O)c(C(=O)O)cn3C2CC2)C1` (centres unmarked) [Example 13 (NorA), 1-Cyclopropyl-6-fluoro-1,4-dihydro-7-(3′,5′-dimethylpiperidin-1-yl)-4-oxo-quinoline-3-carboxylic acid], for which the “FIC INDEX” value was determined as 0.314. Consider `COc1c(N2CCNC(C)C2)c(F)cc2c(=O)c(C(=O)O)cn(C3CC3)c12` (centres unmarked) [Example 23 (NorA), 1-Cyclopropyl-6-fluoro-8-methoxy-1,4-dihydro-7-(3′-methylpiperazin-1-yl)-4-oxo-quinoline-3-carboxylic acid], for which the “FIC INDEX” value was 0.314. As to `CCOC(=O)c1cn(-c2ccc(F)cc2F)c2nc(N3CCc4c(cnn4-c4ccccc4)C3)c(F)cc2c1=O` [Example 52 (NorA), Ethyl 6-fluoro-7-[1-Phenyl-4,5,6,7-tetrahydropyrazolo[4.3-c]pyridin-1-yl]-1-(2,4-difluorophenyl)-4-oxo-1,4-dihydro-1,8-naphthyridine-3-carboxylate], the “FIC INDEX” value is given as 0.100. To `C[C@H]1CCc2c(N3CCC(O)CC3)c(F)cc3c(=O)c(C(=O)OC4CCN(C)CC4)cn1c23` [Example 56 (NorA), (S)-(−)-N-methylpiperidino-9-fluoro-6,7-dihydro-8-(4′-hydroxypiperidin-1-yl)-5-methyl-1-oxo-1H,5H-benzo[i,j]quinolizine-2-carboxylic acid] belongs 0.180; to `CC1(C)CN(c2c(F)c(N)c3c(=O)c(C(=O)O)cn(C4CC4)c3c2F)CCC1O` (centres unmarked) [Example 31 (NorA), 5-Amino-1-cyclopropyl-6,8-difluoro-1,4-dihydro-7-(4′-hydroxy-3′,3′-dimethyl-piperidin-1-yl)-4-oxo-quinoline-3-carboxylic acid], 0.304; to “5-Amino-1-ethyl-6,8-difluoro-1,4-dihydro-7-[(1∝,5∝,6∝)-6′-(N-t-butoxycarbonylamino)-3-azabicyclo[3.1.0]-hex-3-yl}-4-oxo-quinoline-3-carboxylic acid [Example 8 (NorA)]”, 0.314. Regarding `Nc1c(F)c(N2CCC(N3CCCC3)CC2)c(F)c2c1c(=O)c(C(=O)O)cn2C1CC1` [Example 32 (NorA), 5-Amino-1-cyclopropyl-6,8-difluoro-1,4-dihydro-7-{4′-(1-pyrrolidinyl)piperidin-1-yl)-4-oxo-quinoline-3-carboxylic acid], the “FIC INDEX” value was 0.340. The figure for `CCOC1CCN(c2cc3c(c(C)c2F)c(=O)c(C(=O)O)cn3C2CC2)CC1` [Example 17 (NorA), 1-Cyclopropyl-6-fluoro-1,4-dihydro-5-methyl-7-(4′-ethoxypiperidin-1-yl)-4-oxo-quinoline-3-carboxylic acid] is 0.378; for `Cc1c(F)c(N2CCNC(C)(C)C2)cc2c1c(=O)c(C(=O)O)cn2C1CC1` [Example 18 (NorA), 1-Cyclopropyl-6-fluoro-1,4-dihydro-5-methyl-7-(3′,3′-dimethylpiperazin-1-yl)-4-oxo-quinoline-3-carboxylic acid] it is 0.314. As to `CC1CCC(N)N1c1c(F)c(N)c2c(=O)c(C(=O)O)cn(C3CC3)c2c1F` (centres unmarked) [Example 26 (NorA), 5-Amino-1-cyclopropyl-6,8-difluoro-1,4-dihydro-7-(5′-amino-2′-methyl-pyrrolidin-1-yl)-4-oxo-quinoline-3-carboxylic acid], the “FIC INDEX” value is 0.628. In the case of `CCn1cc(C(=O)O)c(=O)c2cc(F)c(N3CCC(OC(C)=O)CC3)c(F)c21` [Example 2 (NorA), 1-Ethyl-6,8-fluoro-1,4-dihydro-7-(4′-acetoxypiperidin-1-yl)-4-oxo-quinoline-3-carboxylic acid], the “FIC INDEX” value was found to be 0.314. To `CC(=O)OC1CCN(c2cc3c(cc2F)c(=O)c(C(=O)O)cn3C2CC2)CC1` [Example 11 (NorA), 1-Cyclopropyl-6-fluoro-1,4-dihydro-7-(4′-acetoxypiperidin-1-yl)-4-oxo-quinoline-3-carboxylic acid] belongs 0.282; to `CN(C)C1CCN(c2cc3c(cc2F)c(=O)c(C(=O)O)cn3C2CC2)CC1` [Example 12 (NorA), 1-Cyclopropyl-6-fluoro-1,4-dihydro-7-(4′-(N-dimethylamino)piperidin-1-yl)-4-oxo-quinoline-3-carboxylic acid], 0.188.

Consider `C[C@H](N)C(=O)N[C@@H](C)C(=O)NC1CCN(c2c(F)c(N)c3c(=O)c(C(=O)O)cn(C4CC4)c3c2F)C1` (stereo partly drawn) [Example 27 (NorA), 5-Amino-1-cyclopropyl-6,8-difluoro-1,4-dihydro-7-{3′-(L-Ala-L-Alaamino)pyrrolidin-1-yl}-4-oxo-quinoline-3-carboxylic acid], for which the “FIC INDEX” value is 0.128. Turning to `Nc1c(F)c(N2CCN(C3CC3)CC2)c(F)c2c1c(=O)c(C(=O)O)cn2C1CC1` [Example 36 (NorA), 5-Amino-1-cyclopropyl-6,8-difluoro-1,4-dihydro-7-(4′-cyclopropylpiperazin-1-yl)-4-oxo-quinoline-3-carboxylic acid], the “FIC INDEX” value amounted to 0.314. `CC1(C)CN(c2c(F)c(N)c3c(=O)c(C(=O)O)cn(-c4ccc(F)cc4F)c3c2F)CCN1` [Example 47 (NorA), 5-Amino-1-(2′,4′-difluorophenyl)-6,8-difluoro-1,4-dihydro-7-(3′,3′-dimethylpiperazin-1-yl)-4-oxo-quinoline-3-carboxylic acid]: the “FIC INDEX” value is reported as 0.375. As for `O=C(O)c1cn(-c2ccc(F)cc2F)c2nc(NC3CCN(c4cc5c(cc4F)c(=O)c(C(=O)O)cn5C4CC4)C3)c(F)cc2c1=O` (centres unmarked) [Bis compound 1, N-1-{7-(1-cyclopropyl-6-fluoro-1,4-dihydro-4-oxo-quinoline-3-carboxylic acid)}-N-3-amino-{7-(1-(2,4-difluorophenyl)-6-fluoro-1,4-dihydro-4-oxo-1,8-naphthyridine-3-carboxylic acid)}-pyrrolidine], the “FIC INDEX” value was found to be 0.253. Take `CC1CN(c2c(F)c(N)c3c(=O)c(C(=O)O)cn(C4CC4)c3c2F)CC(C)N1C(=O)C(C)(C)C` (centres unmarked) [Example 37 (NorA), 5-Amino-1-cyclopropyl-6,8-difluoro-1,4-dihydro-7-(3′,5′-dimethyl-4-pivaloylpiperazin-1-yl)-4-oxo-quinoline-3-carboxylic acid]: the “FIC INDEX” value was determined as 0.314. Turning to `COc1c(N2CCC(N(C)C)C(C)C2)c(F)cc2c(=O)c(C(=O)O)cn(C3CC3)c12` (centres unmarked) [19 (NorA), 1-Cyclopropyl-6-fluoro-8-methoxy-1,4-dihydro-7-{4′-(N-dimethylamino)-3′-methylpiperidin-1-yl}-4-oxo-quinoline-3-carboxylic acid], the “FIC INDEX” value is 0.200.
